According to patent publication US6569897B1, “Alkenyldiarylmethane non-nucleoside HIV-1 reverse transcriptase inhibitors” (priority 1998, dated 2003):
Like-named read-outs stand apart in the source and are kept apart here.

Tests used:
HIV-1RF in CEM-SS cells [1] = assay: microbe, parasite or virus in culture; settings: Human immunodeficiency virus 1, CEM-SS, read-out: EC50 (μM), 50% inhibitory concentration for cytopathicity
in vitro = settings: human, uninfected (mock-infected) CEM-SS cells
HIV-1RF in CEM-SS cells [2] = tested on: HIV-1RF in CEM-SS cells
HIV-1RF in CEM-SS cells [3] = settings: reported previously; cited from earlier work
HIV-1 IIIB in CEM-SS = assay: microbe, parasite or virus in culture; type: cell-based; settings: Human immunodeficiency virus 1, IIIB
HIV-1 NL4-3, RT V108I = type: cell-based
HIV-1 Clade E in PBMC = assay: microbe, parasite or virus in culture; type: cell-based; settings: Human immunodeficiency virus 1, PBMC
HIV-I Clade F in PBMC = assay: microbe, parasite or virus in culture; type: cell-based; settings: Human immunodeficiency virus 1, PBMC
3TC isolate, RT M184I = type: cell-based
HIV-1 TEKI in PBMC = assay: microbe, parasite or virus in culture; type: cell-based; settings: Human immunodeficiency virus 1, PBMC
HIV-1 IIIB Wild Type = assay: microbe, parasite or virus in culture; type: cell-based; settings: Human immunodeficiency virus 1, IIIB
HIV-1 NL4-3, RT L74V = type: cell-based
HIV-1 ROJO in PBMC = assay: microbe, parasite or virus in culture; type: cell-based; settings: Human immunodeficiency virus 1, PBMC
HIV-1 RF in CEM-SS = assay: microbe, parasite or virus in culture; type: cell-based; settings: Human immunodeficiency virus 1, CEM-SS
HIV-1 NL4-3, RT V106A = type: cell-based
[4] = tested on: 129/Cost isolate, RT K103N; type: cell-based, HIV-1
HIV-1 Clade D in PBMC = assay: microbe, parasite or virus in culture; type: cell-based; settings: Human immunodeficiency virus 1, PBMC
HIV-1 Ba-L in Mono/Mac = assay: microbe, parasite or virus in culture; type: cell-based; settings: Human immunodeficiency virus 1, BAL
HIV-1 Clade C in PBMC = assay: microbe, parasite or virus in culture; type: cell-based; settings: Human immunodeficiency virus 1, PBMC
HIV-1 NL4-3 Wildtype = assay: microbe, parasite or virus in culture; type: cell-based; settings: Human immunodeficiency virus 1, NL43, CEM-SS
HIV-1 NL4-3, RT K101E = type: cell-based
HIV-1 NL4-3, RT A98G = type: cell-based
HIV-1 Clade B in PBMC = assay: microbe, parasite or virus in culture; type: cell-based; settings: Human immunodeficiency virus 1, PBMC
HIV-1 Clade A in PBMC = assay: microbe, parasite or virus in culture; type: cell-based; settings: Human immunodeficiency virus 1, PBMC
HIV-1 NL4-3, RT Y188C = type: cell-based

COC(=O)c1cc(C(=CCCOS(C)(=O)=O)c2cc(Cl)c(OC)c(C(=O)OC)c2)cc(Cl)c1OC [Compound 19, 3′,3″-Dichloro-4-methanesulfonyloxy-4′,4″dimethoxy-5′,5′-bis(methoxycarbony)-1,1-diphenyl-1-butene]
EC50 (HIV-1RF in CEM-SS cells [1]): > 6.9 µM
CC50 (in vitro): 6.9 µM

COC=C(c1cc(Br)c(OC)c(C(=O)OC)c1)c1cc(Br)c(OC)c(C(=O)OC)c1 [Compound 5, 3′,3″-Dibromo-4′,4″-dimethoxy-5′,5″-bis(methoxycarbonyl)-1-methoxy-2,2-diphenylethene]
EC50 (HIV-1RF in CEM-SS cells [1]): > 6.9 µM
CC50 (in vitro): 22 µM

COC(=O)c1cc(C(=CCCN)c2cc(Cl)c(OC)c(C(=O)OC)c2)cc(Cl)c1OC [Compound 21, 4-Amino-3′,3″-Dichloro-4′,4″dimethoxy-5′,5″-bis(methoxycarbony)-1,1-diphenyl-1-butene]
inhibition of HIV-1 cytopathic effect (in words) (HIV-1RF in CEM-SS cells [2]; HIV-1RF in CEM-SS cells): no detectable inhibitory cytopathic effect was detected
inhibition of HIV-1 cytopathic effect (in words) (HIV-1RF in CEM-SS cells [2]; at 100 μM): inactive
EC50 (HIV-1RF in CEM-SS cells [1]): > 6.9 µM
CC50 (in vitro): 15 µM

CCCCCC=C(c1cc(I)c(OC)c(C(=O)OC)c1)c1cc(I)c(OC)c(C(=O)OC)c1 [Compound 40, 3′,3″-Diiodo-4′,4″-Dimethoxy-5′,5″-bis(methoxycarbonyl)-1,1-diphenyl-1-heptene]
inhibition of HIV-1 cytopathic effect (in words) (HIV-1RF in CEM-SS cells [2]; HIV-1RF in CEM-SS cells): inactivity
EC50 (HIV-1RF in CEM-SS cells [1]): > 6.9 µM
CC50 (in vitro): > 316 µM

COC(=O)c1cc(C(=CCCN=[N+]=[N-])c2cc(Br)c(OC)c(C(=O)OC)c2)cc(Br)c1OC [Compound 9, 4-Azido-3′,3″-Dibromo-4′,4″dimethoxy-5′,5″-bis(methoxycarbony)-1,1-diphenyl-1-butene]
TI, therapeutic index (CC50 divided by EC50) (HIV-1RF in CEM-SS cells [2]; HIV-1RF, CEM-SS cells): >278
EC50 (HIV-1RF in CEM-SS cells [1]): 1.1 µM
CC50 (in vitro): > 316 µM

CC1(C)OC(=O)c2cc(C(=CCCBr)c3cc(Cl)c4c(c3)C(=O)OC(C)(C)O4)cc(Cl)c2O1 [Compound 31, 1-Bromo-4,4-bis(8′,8″-dichloro-2′,2′,2″,2″-tetramethyl-4′,4″-dioxo-6′,6″-0(1,3-benzodioxyl)]-3-butene]
inhibition of HIV-1 cytopathic effect (in words) (HIV-1RF in CEM-SS cells [2]; HIV-1RF in CEM-SS cells): inactive
EC50 (HIV-1RF in CEM-SS cells [1]): > 6.9 µM
CC50 (in vitro): 176 µM

CCCCCC=C(c1cc(Cl)c(OC)c(C(=O)OC)c1)c1cc(Cl)c(OC)c(C(=O)OC)c1 [Compound 41]
potency relative to 1 (HIV-1RF in CEM-SS cells [3]): approximately half as potent as 1

CC1(C)OC(=O)c2cc(C(=CCCO)c3cc(Cl)c4c(c3)C(=O)OC(C)(C)O4)cc(Cl)c2O1 [Compound 30]
inhibition of HIV-1 cytopathic effect (in words) (HIV-1RF in CEM-SS cells [2]; HIV-1RF in CEM-SS cells): inactive
EC50 (HIV-1RF in CEM-SS cells [1]): > 6.9 µM
CC50 (in vitro): 18.8 µM

COC(=O)c1cc(C(=CC(=O)OC(C)(C)C)c2cc(Cl)c(OC)c(C(=O)OC)c2)cc(Cl)c1OC [Compound 16, tert-Butyl 3′,3″-Dichloro-4′,4″-dimethoxy-5,5″-bis(methoxycarbonyl)3,3-diphenylpropenoate]
EC50 (HIV-1RF in CEM-SS cells [1]): > 6.9 µM
CC50 (in vitro): > 100 µM

CCCCCC=C(c1ccc(OC)c(C(=O)OC)c1)c1ccc(OC)c(C(=O)OC)c1 [Compound 36, 4′,4″-Dimethoxy-3′,3″-bis(methoxycarbonyl)-1,1-diphenyl-1-heptene]
EC50 (HIV-1RF in CEM-SS cells [1]): > 6.9 µM
CC50 (in vitro): 14 µM

COC(=O)c1cc(C(=CCCO)c2cc(Br)c(OC)c(C(=O)OC)c2)cc(Br)c1OC [Compound 7, 3′,3″-Dibromo-4-hydroxy-4′,4″dimethoxy-5′,5″-bis(methoxycarbony)-1,1-diphenyl-1-butene]
TI, therapeutic index (CC50 divided by EC50) (HIV-1RF in CEM-SS cells [2]; HIV-1RF, CEM-SS cells): >52
EC50 (HIV-1RF in CEM-SS cells [1]): 6 µM
CC50 (in vitro): > 316 µM

COC(=O)c1cc(C(=CC(=O)O)c2cc(Cl)c(OC)c(C(=O)OC)c2)cc(Cl)c1OC [Compound 14, 3′,3″-Dichloro-4′,4″-dimethoxy-5′,5″-bis(methoxycarbonyl)-3,3-diphenylpropenoic Acid]
EC50 (HIV-1RF in CEM-SS cells [1]): > 6.9 µM
CC50 (in vitro): 48 µM

COC(=O)c1cc(C(=CCCN=[N+]=[N-])c2cc(Cl)c(OC)c(C(=O)OC)c2)cc(Cl)c1OC [Compound 20, 4-Azido-3′,3″-Dichloro-4′,4″dimethoxy-5′,5′-bis(methoxycarbony)-1,1-diphenyl-1-butene]
TI, therapeutic index (CC50 divided by EC50) (HIV-1RF in CEM-SS cells [2]): 155
potency relative to the bromo azide 9 (HIV-1RF in CEM-SS cells [2]; inhibition of viral cytopathicity): four times more potent
EC50 (HIV-1RF in CEM-SS cells [1]): 0.27 µM
CC50 (in vitro): 41.8 µM

COc1c(Cl)cc(C(=CCC(=O)O)c2cc(Cl)c(OC)c(C(=O)O)c2)cc1C(=O)O [Compound 23, 3′,3″-Dichloro-4′,4″-dimethoxy-5′,5″-bis(carboxy)-4,4-diphenyl-3-butenoic Acid]
EC50 (HIV-1RF in CEM-SS cells [1]): > 6.9 µM
CC50 (in vitro): > 316 µM

COC(=O)c1cc(C(=CCCO)c2cc(Cl)c(OC)c(C(=O)OC)c2)cc(Cl)c1OC [Compound 18, 3′,3″-Dichloro-4-hydroxy-4′,4″dimethoxy-5′,5″-bis(methoxycarbony)-1,1-diphenyl-1-butene]
TI, therapeutic index (CC50 divided by EC50) (HIV-1RF in CEM-SS cells [2]; HIV-1RF, CEM-SS cells): 2
EC50 (HIV-1RF in CEM-SS cells [1]): 8.6 µM
CC50 (in vitro): 16.8 µM

COC(=O)C=C(c1cc(Cl)c(OC)c(C(=O)OC)c1)c1cc(Cl)c(OC)c(C(=O)OC)c1 [Compound 15, Methyl 3′,3″-Dichloro-4′,4″-dimethoxy-5,5Δ-bis(methoxycarbonyl)-3,3-diphenylpropenoate]
EC50 (HIV-1RF in CEM-SS cells [1]): > 6.9 µM
CC50 (in vitro): 25 µM

CC=C(c1cc(Br)c(OC)c(C(=O)OC)c1)c1cc(Br)c(OC)c(C(=O)OC)c1 [Compound 4, 3′,3″-Dibromo-4′,4″-dimethoxy-5′,5″-bis(methoxycarbonyl)-1,1-diphenylpropene]
EC50 (HIV-1RF in CEM-SS cells [1]): > 6.9 µM
CC50 (in vitro): 10 µM

CCCCCC1OC1(c1cc(Br)c(OC)c(C(=O)OC)c1)c1cc(Br)c(OC)c(C(=O)OC)c1 (centres unmarked) [Compound 12, 3′,3″-Dibromo-4′,4″-dimethoxy-5′,5″-bis(methoxycarbonyl)-1,1,-diphenyl-1-heptene Epoxide]
EC50 (HIV-1RF in CEM-SS cells [1]): > 6.9 µM
CC50 (in vitro): > 100 µM

C=C(c1cc(Br)c(OC)c(C(=O)OC)c1)c1cc(Br)c(OC)c(C(=O)OC)c1 [Compound 3, 3′,3″-Dibromo-4′,4″-dimethoxy-5′,5″-bis(methoxycarbonyl)-1,1-diphenylethene]
melting point: 144 to 145 °C
EC50 (HIV-1RF in CEM-SS cells [1]): > 6.9 µM
CC50 (in vitro): 316 µM

COC(=O)CCCC=C(c1cc(Cl)c(OC)c(C(=O)OC)c1)c1cc(Cl)c(OC)c(C(=O)OC)c1 [Compound 22, Methyl 3′,3″-Dichloro-4′,4″-dimethoxy-5,5″-bis(methoxycarbonyl)-6,6-diphenylhexenoate]
EC50 (HIV-1 IIIB in CEM-SS): 0.16 µM
EC50 (HIV-1 NL4-3, RT V108I): 12 µM
EC50 (HIV-1 Clade E in PBMC): 0.4 µM
EC50 (HIV-I Clade F in PBMC): 1.7 µM
EC50 (3TC isolate, RT M184I): 1.08 µM
EC50 (HIV-1 TEKI in PBMC): 2.2 µM
EC50 (HIV-1 IIIB Wild Type): 0.39 µM
EC50 (HIV-1 NL4-3, RT L74V): 2.23 µM
EC50 (HIV-1 ROJO in PBMC): 2.28 µM
EC50 (HIV-1 RF in CEM-SS): 0.91 µM
EC50 (HIV-1 NL4-3, RT V106A): 12.7 µM
EC50 [4]: 10.8 µM
EC50 (HIV-1 Clade D in PBMC): 1.02 µM
EC50 (HIV-1RF in CEM-SS cells [1]): 0.013 µM
EC50 (HIV-1 Ba-L in Mono/Mac): 0.36 µM
EC50 (HIV-1 Clade C in PBMC): 1.04 µM
EC50 (HIV-1 NL4-3 Wildtype): 1.78 µM
EC50 (HIV-1 NL4-3, RT K101E): 3.05 µM
EC50 (HIV-1 NL4-3, RT A98G): 0.84 µM
EC50 (HIV-1 Clade B in PBMC): 0.43 µM
EC50 (HIV-1 Clade A in PBMC): 1.09 µM
EC50 (HIV-1 NL4-3, RT Y188C): 10.8 µM
CC50 (in vitro): 31.6 µM
